According to patent US12378268B2, “Heterocyclic THR-β receptor agonist compound and preparation method and use therefor” (Hepagene Therapeutics (HK) Limited, priority 2019, dated 2025):
Like-named read-outs stand apart in the source and are kept apart here.

Key:
THR-β = target: T1, THR-β (Homo sapiens, UniProt P10828); assay: Test of the binding ability of the compound to TRβ (TRβ LBD/RXR, biotin-SRC2-2 co-activating peptide, 665/615 nm fluorescence ratio); assay type: biochemical
T1 construct: TRB LBD, GST purchased from Thermo Fisher; purchased Thermo Fisher PV4762
T1 sequence (P10828 217-461 limits assumed, other chains not shown): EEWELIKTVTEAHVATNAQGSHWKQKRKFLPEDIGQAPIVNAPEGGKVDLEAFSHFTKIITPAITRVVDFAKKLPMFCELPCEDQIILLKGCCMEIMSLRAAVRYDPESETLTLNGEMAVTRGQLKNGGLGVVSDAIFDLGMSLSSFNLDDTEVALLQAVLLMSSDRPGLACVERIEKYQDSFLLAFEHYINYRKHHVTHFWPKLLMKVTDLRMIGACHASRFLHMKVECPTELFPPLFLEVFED
T1 sequence (P28702 whole entry partner, other chains not shown, the tested form may be a part): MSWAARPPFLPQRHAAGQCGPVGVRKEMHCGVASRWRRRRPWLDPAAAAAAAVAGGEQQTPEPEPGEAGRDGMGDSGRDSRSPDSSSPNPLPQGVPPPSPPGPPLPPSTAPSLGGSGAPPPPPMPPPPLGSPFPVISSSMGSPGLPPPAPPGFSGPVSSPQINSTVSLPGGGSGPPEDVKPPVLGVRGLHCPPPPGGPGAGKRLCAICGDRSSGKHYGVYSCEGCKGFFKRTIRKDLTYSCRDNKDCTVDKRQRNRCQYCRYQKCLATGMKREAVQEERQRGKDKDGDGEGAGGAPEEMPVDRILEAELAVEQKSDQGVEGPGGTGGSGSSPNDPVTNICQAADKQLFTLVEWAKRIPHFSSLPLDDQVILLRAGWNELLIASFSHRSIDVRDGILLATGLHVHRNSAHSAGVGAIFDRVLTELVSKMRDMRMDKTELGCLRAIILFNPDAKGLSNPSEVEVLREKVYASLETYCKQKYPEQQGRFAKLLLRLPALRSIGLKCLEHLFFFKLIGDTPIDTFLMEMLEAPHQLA
Procedure: 1. Main experimental materials and instruments:
Biotin-SRC2-2 co-activating peptide purchased from Sangon Biotech (Shanghai) Co., Ltd.
TRB LBD, GST purchased from Thermo Fisher (product No. PV4762)
Europium-conjugated anti-glutathione antibody purchased from Cisbio (product No. 61GSTKLB)
Streptavidin-D2 purchased from Cisbio (product No. 610SADAB)
(§1) 4.2 The activity percentage was calculated as follows: […]
(§2) RatioCompound: Average of the relative ratios of the compound wells of the embodiments
(§3) RatioPositive: Average of the relative ratios of all positive control wells.
(§4) RatioBlank: Average of the relative ratios of all negative control wells.
(§5) EC50 was calculated by fitting the relationship between activity (%) and compound logarithmic concentration with Graphpad 5.0 by a nonlinear regression method.
(§6) Y=Bottom+ (top-bottom)/(1+10^((LogEC50−X)*slope))
(§7) X: Compound logarithmic concentration Y: Percentage activity

THR-α = target: T2, THR-α (Homo sapiens, UniProt P10827); assay: Test of the binding ability of the compound to TRα (TRα LBD/RXRα, biotin-SRC2-2 co-activating peptide, 665/615 nm fluorescence ratio); assay type: biochemical
T2 construct: TR-a LBD, GST purchased from Thermo Fisher; purchased Thermo Fisher PV4762
T2 sequence (P10827 163-410 isoform P10827-2 limits assumed, other chains not shown): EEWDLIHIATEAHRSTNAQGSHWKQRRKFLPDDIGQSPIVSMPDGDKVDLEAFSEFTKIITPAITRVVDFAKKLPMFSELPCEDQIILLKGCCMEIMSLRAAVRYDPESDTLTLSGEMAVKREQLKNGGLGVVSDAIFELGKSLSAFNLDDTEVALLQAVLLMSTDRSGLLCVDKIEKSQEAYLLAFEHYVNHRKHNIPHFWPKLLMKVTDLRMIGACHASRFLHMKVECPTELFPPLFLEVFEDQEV
T2 sequence (P19793 whole entry partner, other chains not shown, the tested form may be a part): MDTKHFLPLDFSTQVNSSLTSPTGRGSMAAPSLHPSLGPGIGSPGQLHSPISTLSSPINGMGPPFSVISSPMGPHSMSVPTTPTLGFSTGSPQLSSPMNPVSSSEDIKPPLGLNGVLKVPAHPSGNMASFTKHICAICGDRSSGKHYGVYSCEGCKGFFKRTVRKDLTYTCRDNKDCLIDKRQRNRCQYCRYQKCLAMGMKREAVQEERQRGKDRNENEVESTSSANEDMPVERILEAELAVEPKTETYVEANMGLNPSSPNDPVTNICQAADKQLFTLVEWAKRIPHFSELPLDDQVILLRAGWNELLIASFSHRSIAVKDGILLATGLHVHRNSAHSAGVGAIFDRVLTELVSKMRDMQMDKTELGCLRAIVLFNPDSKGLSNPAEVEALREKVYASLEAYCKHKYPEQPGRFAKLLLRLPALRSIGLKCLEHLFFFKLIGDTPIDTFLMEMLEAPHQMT
Procedure: as §1, §2, §3, §4, §5, §6, §7

[1] = Drug metabolism experiment on prodrug in SD rats: plasma pharmacokinetic parameters; assay type: in vivo; settings: plasma; for AUC(0-inf) / AUC(0-t) / Tmax / half-life / Cmax: male, Sprague-Dawley (SD), rat, po, 3 mg/kg
Procedure: (§8) Test 3: Drug metabolism experiment on prodrug in SD rats
(§9) In the experiment, […] of 12 male SD rats having similar body weights were selected and orally administered compound 9, compound 10, and the control drug VK2809 (the prodrug of MB07444, structured as shown below) at a dose of 3 mg/kg at a single time, respectively, and blood and liver samples were collected at different time points.
(§10) Solutions of compound 9/compound 10 and VK2809 with a final concentration of 0.6 mg/mL were respectively prepared, and the ratio between the solvents used for the preparation was PEG400: pure water =50:50 (v/v).
(§11) No randomization was performed. The weights of the animals were measured before administration, and healthy animals with similar body weights were selected for inclusion in the experiment. The oral dose was 3 mg/kg.
(§12) At least 0.2 mL of blood was collected from the tail vein or jugular vein, and heparin sodium was used as the anticoagulant.
15 min, 30 min, 1 h, 2 h, 4 h, 6 h, 8 h, 24 h after administration.
(§13) After being collected, a blood sample was placed in a marked ice-water bath centrifuge tube, plasma was quickly separated by centrifugation under centrifugation conditions: 3500 rpm, 10 minutes, and 4° C., and the plasma was stored under −40° C. for testing.
(§14) Q TRAP6500 mass spectrometer with ESI source was used to perform negative ion MRM scanning. An LC-MS/MS analysis method was used to detect the contents of compound 9, compound 10 and its active metabolite 1, VK2809 and its active metabolite MB07444 in the plasma and liver. The metabolic kinetics data analysis software WinNonlin 7.0 was used to calculate the concentration data of plasma, and the non-compartmental model (NCA) method was used to calculate the pharmacokinetic parameters.

[2] = Drug metabolism experiment on prodrug in SD rats: concentration in liver compared with blood; assay type: in vivo; settings: for Kp at 1 h / Kp at 4 h / Kp at 8 h / Kp at 24 h / concentration at 1 h / concentration at 4 h / concentration at 8 h / concentration at 24 h: male, rat, po, 3 mg/kg, SD rats; for Kp at 1 h / Kp at 4 h / Kp at 8 h / Kp at 24 h: read-out: Liver-to-blood ratio
Procedure: as §8, §9, §10, §11, §12, §13
After the liver sample was collected, its surface was washed with normal saline, dried with medical gauze, placed in a labeled small ziplock bag, and stored under −40° C. for testing.
as §14
The parameters of concentration in the livers of the SD rats and a comparison with the concentration in plasma are shown in Table 3 below: […]

[3] = activity relative to positive control
[4] = Sprague-Dawley (SD), liver / plasma (heading prints blood), oral 3 mg/kg Compound 9
[5] = Sprague-Dawley (SD), liver / plasma (heading prints blood), oral 3 mg/kg Compound 10
[6] = Sprague-Dawley (SD), liver, oral 3 mg/kg Compound 9, read-out: Ct Liver
[7] = Sprague-Dawley (SD), liver, oral 3 mg/kg Compound 10, read-out: Ct Liver
[8] = Sprague-Dawley (SD), plasma (heading prints blood), oral 3 mg/kg Compound 10, read-out: Ct Blood
[9] = Sprague-Dawley, plasma, oral 3 mg/kg Compound 9, read-out: Ct Blood

EC50 (THR-β): 0.012 µM | Emax (THR-β; [3]): 104% | α/β selectivity (multiple) (THR-β; calculated after being standardized with T3): 7.0 multiple | EC50 (THR-α): 0.041 µM | Emax (THR-α; [3]): 96.4% | AUC(0-inf) ([1]; oral 3 mg/kg Compound 9): 1350 ng·h/mL | AUC(0-t) ([1]; oral 3 mg/kg Compound 9): 1290 ng·h/mL | Tmax ([1]; oral 3 mg/kg Compound 9): 4.67 h | half-life ([1]; oral 3 mg/kg Compound 9): 4.82 h | AUC(0-inf) ([1]; oral 3 mg/kg Compound 10): 613 ng·h/mL | AUC(0-t) ([1]; oral 3 mg/kg Compound 10): 586 ng·h/mL | Tmax ([1]; oral 3 mg/kg Compound 10): 6.67 h | half-life ([1]; oral 3 mg/kg Compound 10): 4.59 h | Cmax ([1]; oral 3 mg/kg Compound 9, read-out: Cmax): 134 ng/mL | Cmax ([1]; oral 3 mg/kg Compound 10, read-out: Cmax): 45.1 ng/mL | Kel ([1]; oral 3 mg/kg Compound 9): 0.147 h⁻¹ | Kel ([1]; oral 3 mg/kg Compound 10): 0.154 h⁻¹ | Kp at 1 h [2, 4]: 20.8 | Kp at 1 h [2, 5]: 29.1 | Kp at 4 h [2, 4]: 16.2 | Kp at 4 h [2, 5]: 20.6 | Kp at 8 h [2, 4]: 25.5 | Kp at 8 h [2, 5]: 17.7 | Kp at 24 h [2, 4]: 47.1 | concentration at 1 h [2, 6]: 312 ng/g | concentration at 1 h [2, 7]: 693 ng/g | concentration at 4 h [2, 6]: 1560 ng/g | concentration at 4 h [2, 7]: 2580 ng/g | concentration at 8 h [2, 6]: 762 ng/g | concentration at 8 h [2, 7]: 1710 ng/g | concentration at 24 h [2, 6]: 396 ng/g | concentration at 1 h [2, 8]: 5.4 ng/g | concentration at 4 h [2, 8]: 28.4 ng/g | concentration at 8 h [2, 8]: 43.6 ng/g | concentration at 24 h [2, 8]: 3.83 ng/g | concentration at 24 h ([2]; Sprague-Dawley, liver, oral 3 mg/kg Compound 10, read-out: Ct Liver): 431 ng/g | Kp at 24 h ([2]; Sprague-Dawley, liver/plasma, oral 3 mg/kg Compound 10): 121 | concentration at 1 h [2, 9]: 15 ng/g | concentration at 4 h [2, 9]: 96.3 ng/g | concentration at 8 h [2, 9]: 29.9 ng/g | concentration at 24 h [2, 9]: 8.4 ng/g
SMILES: Cc1cc(OCP(=O)(O)O)cc(C)c1Cc1ccc(O)c2c1CCC2(C)C [Compound 1, ((4-((7-hydroxy-1,1-dimethyl-2,3-dihydro-1H-indene-4-position)methyl)-3,5-dimethylphenoxy)methyl) phosphoric acid]
activity for THR-β compared with MB07444 (THR-β; in words): much higher than that of the contrast compound MB07444 | absolute concentration of active metabolite in the liver compared with control drug VK2809 ([2]; after prodrug compound 9, in words): higher than that of the control drug VK2809 | liver-to-blood ratio compared with control drug ([2]; after prodrug compound 10, in words): significantly higher than that of the control drug | absolute concentration of active metabolite in the liver compared with MB07444 from VK2809 ([2]; after prodrug compound 10, same prodrug dose, in words): at least three times that of the active metabolite drug MB07444
